Assay: Shell wheel test (corrosion inhibition)
Conditions: 50 ppm of a 24% solution of the inhibitor; salt water/petroleum 9:1, 5% NaCl, pH 3.5; 40 rpm, 70° C., 24 hours; from decrease in coupon mass vs blank
Experimental: The compounds according to the invention were tested as corrosion inhibitors in the Shell wheel test. Coupons of C steel (DIN 1.1203 with 15 cm^2 surface area) were immersed in a salt water/petroleum mixture (9:1, 5% strength NaCl solution adjusted to pH 3.5 with acetic acid) and exposed to this medium at a speed of 40 rpm at 70° C. for 24 hours. The inhibitor dose was 50 ppm of a 24% solution of the inhibitor. The protection values were calculated from the decrease in the mass of the coupons, based on a blank value.

CCCCCCCC/C=C\CCCCCCCC(=O)NC(CCSC)C(=O)[O-].[K+] (racemic) [Example 2, N-Oleoyl-DL-methionine Potassium Salt]
ø protection %: 69%

Reference: US20090057618A1, “Corrosion inhibitors containing amphoteric surfactants” (Clariant International Ltd., priority 2007, published 2009)
